Like-named read-outs stand apart in the source and are kept apart here.
Key:
[1] = logP determination by HPLC, reversed-phase column (C 18), EEC Directive 79/831 Annex V.A8
Description: (a) Mobile phases for the determination in the acidic range: 0.1% aqueous phosphoric acid, acetonitrile; linear gradient from 10% acetonitrile to 90% acetonitrile—the corresponding measurement results are labelled in Table 1 with ^a).
(b) Mobile phases for the determination in the neutral range: 0.01 molar aqueous phosphate buffer solution, acetonitrile; linear gradient from 10% acetonitrile to 90% acetonitrile—the corresponding measurement results are labelled in Table 1 with ^b).

weeds [2] = experiment: Pre-Emergence Test (Example A), activity against weeds; assay type: in vivo; conditions: soil sprayed about 24 hours after sowing, rated after three weeks
Description: (§1) Solvent: 5 parts by weight of acetone
(§2) Emulsifier: 1 part by weight of alkylaryl polyglycol ether
(§3) Seeds of the test plants are sown in normal soil.
0%=no effect (like untreated control)

[3] = system: crop plants, such as, for example, barley, wheat, rapeseed, soya and sugar beet; experiment: Pre-Emergence Test (Example A), tolerance by crop plants; assay type: in vivo
Description: as §1, §2, §3

weeds [4] = experiment: Post-Emergence Test (Example B), activity against weeds; assay type: in vivo; conditions: test plants of a height of 5-15 cm sprayed, rated after three weeks
Description: as §1, §2
(§4) After three weeks, the degree of damage to the plants is rated in % damage in comparison to the development of the untreated control.

[5] = system: crop plants, such as, for example, barley and wheat; experiment: Post-Emergence Test (Example B), tolerance by crop plants
Description: as §1, §2, §4

[6] = a) acidic range: 0.1% aqueous phosphoric acid, acetonitrile gradient, HPLC C 18, 43° C.
[7] = pre-emergence, barley, wheat, rapeseed, soya and sugar beet, rated after three weeks
[8] = post-emergence, barley and wheat, rated after three weeks

SMILES | melting point | logP a) [1] | activity against weeds (degree of damage) (weeds [2]) | tolerance by crop plants ([3]; in vivo) | activity against weeds (degree of damage) (weeds [4]) | tolerance by crop plants ([5]; in vivo) | chromatographic logP ([1]; pH 2) | logP a) [1, 6] | tolerance by crop plants [3, 7] | tolerance by crop plants [5, 8]
N#Cc1cc(F)c(-n2ncc(=O)[nH]c2=O)cc1F | > 250 °C |  |  |  |  |  |  |  |  | 
CCS(=O)(=O)N(C(=O)c1ccco1)c1cc(-n2ncc(=O)n(C)c2=O)c(F)cc1C#N [Example 14] |  | m.p.: 90 °C logP = 2.31^a) | very strong activity | essentially being tolerated well | very strong activity | essentially being tolerated well |  |  |  | 
CCS(=O)(=O)N(C(=O)CCc1ccc(Cl)c(Cl)c1)c1cc(-n2ncc(=O)n(C)c2=O)c(F)cc1C#N [Example 44] |  | m.p.: 142 °C logP = 2.52^a) | very strong activity | essentially being tolerated well | very strong activity | essentially being tolerated well |  |  |  | 
CCOc1ccc(CCC(=O)N(c2cc(-n3ncc(=O)n(C)c3=O)c(F)cc2C#N)S(=O)(=O)CC)cc1 [Example 51] |  | m.p.: 74 °C logP = 3.22^a) | very strong activity | essentially being tolerated well | very strong activity | essentially being tolerated well |  |  |  | 
CCS(=O)(=O)N(C(=O)C1CCCC1)c1cc(-n2ncc(=O)n(C)c2=O)c(F)cc1C#N [Example 47] |  | m.p.: 93 °C logP = 2.66^a) | very strong activity | essentially being tolerated well | very strong activity | essentially being tolerated well |  |  |  | 
CCS(=O)(=O)N(C(=O)c1ccccc1F)c1cc(-n2ncc(=O)n(C)c2=O)c(F)cc1C#N [Example 5] |  | m.p.: 176 °C logP = 2.52^a) | very strong activity | essentially being tolerated well | very strong activity | essentially being tolerated well |  |  |  | 
CCS(=O)(=O)N(C(=O)c1nn(C)c(OC(F)F)c1C)c1cc(-n2ncc(=O)n(C)c2=O)c(F)cc1C#N [Example 23] |  | m.p.: 187 °C logP = 2.82^a) | very strong activity | essentially being tolerated well | very strong activity | essentially being tolerated well |  |  |  | 
CCS(=O)(=O)N(C(=O)C(C)(C)C)c1cc(-n2ncc(=O)n(C)c2=O)c(F)cc1C#N [Example 10] |  | logP = 2.71^a) | very strong activity | essentially being tolerated well | very strong activity | essentially being tolerated well |  |  |  | 
CCS(=O)(=O)N(C(=O)Oc1ccccc1)c1cc(-n2ncc(=O)n(C)c2=O)c(F)cc1C#N [Example 1, 2-[5-(N-phenoxy-carbonyl-N-ethylsulphonylamino)-4-cyano-2-fluoro-phenyl]-4-methyl-1,2,4-triazine-3,5(2H,4H)-dione] | 181 °C |  |  |  |  |  | 2.76 |  |  | 
CCS(=O)(=O)N(C(=O)C=C(C)C)c1cc(-n2ncc(=O)n(C)c2=O)c(F)cc1C#N [Example 32] |  |  | very strong activity |  | very strong activity |  |  | m.p.: 150 °C logP = 2.40^a) | essentially being tolerated well | essentially being tolerated well
CCS(=O)(=O)N(C(C)=O)c1cc(-n2ncc(=O)n(C)c2=O)c(F)cc1C#N [Example 28] |  | logP = 1.79^a) | very strong activity | essentially being tolerated well | very strong activity | essentially being tolerated well |  |  |  | 
CCS(=O)(=O)N(C(=O)COc1ccc(Cl)cc1)c1cc(-n2ncc(=O)n(C)c2=O)c(F)cc1C#N [Example 6] |  | m.p.: 65 °C logP = 3.07^a) | very strong activity | essentially being tolerated well | very strong activity | essentially being tolerated well |  |  |  | 
CCS(=O)(=O)N(C(=O)Cc1ccc(Cl)cc1)c1cc(-n2ncc(=O)n(C)c2=O)c(F)cc1C#N [Example 42] |  | m.p.: 222 °C logP = 2.96^a) | very strong activity | essentially being tolerated well | very strong activity | essentially being tolerated well |  |  |  | 
CCS(=O)(=O)N(C(=O)C(C)C)c1cc(-n2ncc(=O)n(C)c2=O)c(F)cc1C#N [Example 13] |  | logP = 2.50^a) | very strong activity | essentially being tolerated well | very strong activity | essentially being tolerated well |  |  |  | 
C/C=C/C(=O)N(c1cc(-n2ncc(=O)n(C)c2=O)c(F)cc1C#N)S(=O)(=O)CC [Example 18] |  |  | very strong activity |  | very strong activity |  |  | m.p.: 153 °C logP = 2.16^a) | essentially being tolerated well | essentially being tolerated well
CCC(Oc1ccccc1)C(=O)N(c1cc(-n2ncc(=O)n(C)c2=O)c(F)cc1C#N)S(=O)(=O)CC (racemic) [Example 33] |  | m.p.: 128 °C logP = 3.12^a) | very strong activity | essentially being tolerated well | very strong activity | essentially being tolerated well |  |  |  | 
CCS(=O)(=O)N(C(=O)C(C)Oc1ccccc1)c1cc(-n2ncc(=O)n(C)c2=O)c(F)cc1C#N (racemic) [Example 39] |  | m.p.: 132 °C logP = 2.85^a) | very strong activity | essentially being tolerated well | very strong activity | essentially being tolerated well |  |  |  | 
CCS(=O)(=O)N(C(=O)c1ccc(F)cc1)c1cc(-n2ncc(=O)n(C)c2=O)c(F)cc1C#N [Example 26] |  | m.p.: 123 °C logP = 2.60^a) | very strong activity | essentially being tolerated well | very strong activity | essentially being tolerated well |  |  |  | 
CCS(=O)(=O)N(C(=O)c1ccc(C(C)(C)C)cc1)c1cc(-n2ncc(=O)n(C)c2=O)c(F)cc1C#N [Example 49] |  | m.p.: 119 °C logP = 3.57^a) | very strong activity | essentially being tolerated well | very strong activity | essentially being tolerated well |  |  |  | 
CCS(=O)(=O)N(C(=O)COC)c1cc(-n2ncc(=O)n(C)c2=O)c(F)cc1C#N [Example 25] |  | logP = 1.82^a) | very strong activity | essentially being tolerated well | very strong activity | essentially being tolerated well |  |  |  | 
CCS(=O)(=O)N(C(=O)C(C)Cl)c1cc(-n2ncc(=O)n(C)c2=O)c(F)cc1C#N (racemic) [Example 61] |  | logP = 2.38^a) | very strong activity | essentially being tolerated well | very strong activity | essentially being tolerated well |  |  |  | 
CCS(=O)(=O)N(C(=O)CCl)c1cc(-n2ncc(=O)n(C)c2=O)c(F)cc1C#N [Example 4] |  | logP = 2.09^a) | very strong activity | essentially being tolerated well | very strong activity | essentially being tolerated well |  |  |  | 
CCS(=O)(=O)N(C(=O)CC(C)C)c1cc(-n2ncc(=O)n(C)c2=O)c(F)cc1C#N [Example 20] |  | logP = 2.65^a) | very strong activity | essentially being tolerated well | very strong activity | essentially being tolerated well |  |  |  | 
CCS(=O)(=O)N(C(=O)CCC1CCCCC1)c1cc(-n2ncc(=O)n(C)c2=O)c(F)cc1C#N [Example 31] |  | m.p.: 123 °C logP = 3.66^a) | very strong activity | essentially being tolerated well | very strong activity | essentially being tolerated well |  |  |  | 

Reference: US6608004B2, “Substituted 2-aryl-1,2,4-triazine-3,5-di(thi)ones” (priority 1999, dated 2003)
